Test results published in US20250268909A1, “Combination Therapy” (US Oncology Corporate, Inc., priority 2022, published 2025).
Where “and” joins values, the source holds several entries; their conditions need not be identical. Equal values may be shown once.

Experiments:
[1] = test system: breast cancer xenograft models; details: alisertib added to either paclitaxel or docetaxel; cited from earlier work
[2] = target: Pgp (Homo sapiens, UniProt P08183); details: cell culture model; cited from earlier work
Sequence of Pgp (P08183 whole entry): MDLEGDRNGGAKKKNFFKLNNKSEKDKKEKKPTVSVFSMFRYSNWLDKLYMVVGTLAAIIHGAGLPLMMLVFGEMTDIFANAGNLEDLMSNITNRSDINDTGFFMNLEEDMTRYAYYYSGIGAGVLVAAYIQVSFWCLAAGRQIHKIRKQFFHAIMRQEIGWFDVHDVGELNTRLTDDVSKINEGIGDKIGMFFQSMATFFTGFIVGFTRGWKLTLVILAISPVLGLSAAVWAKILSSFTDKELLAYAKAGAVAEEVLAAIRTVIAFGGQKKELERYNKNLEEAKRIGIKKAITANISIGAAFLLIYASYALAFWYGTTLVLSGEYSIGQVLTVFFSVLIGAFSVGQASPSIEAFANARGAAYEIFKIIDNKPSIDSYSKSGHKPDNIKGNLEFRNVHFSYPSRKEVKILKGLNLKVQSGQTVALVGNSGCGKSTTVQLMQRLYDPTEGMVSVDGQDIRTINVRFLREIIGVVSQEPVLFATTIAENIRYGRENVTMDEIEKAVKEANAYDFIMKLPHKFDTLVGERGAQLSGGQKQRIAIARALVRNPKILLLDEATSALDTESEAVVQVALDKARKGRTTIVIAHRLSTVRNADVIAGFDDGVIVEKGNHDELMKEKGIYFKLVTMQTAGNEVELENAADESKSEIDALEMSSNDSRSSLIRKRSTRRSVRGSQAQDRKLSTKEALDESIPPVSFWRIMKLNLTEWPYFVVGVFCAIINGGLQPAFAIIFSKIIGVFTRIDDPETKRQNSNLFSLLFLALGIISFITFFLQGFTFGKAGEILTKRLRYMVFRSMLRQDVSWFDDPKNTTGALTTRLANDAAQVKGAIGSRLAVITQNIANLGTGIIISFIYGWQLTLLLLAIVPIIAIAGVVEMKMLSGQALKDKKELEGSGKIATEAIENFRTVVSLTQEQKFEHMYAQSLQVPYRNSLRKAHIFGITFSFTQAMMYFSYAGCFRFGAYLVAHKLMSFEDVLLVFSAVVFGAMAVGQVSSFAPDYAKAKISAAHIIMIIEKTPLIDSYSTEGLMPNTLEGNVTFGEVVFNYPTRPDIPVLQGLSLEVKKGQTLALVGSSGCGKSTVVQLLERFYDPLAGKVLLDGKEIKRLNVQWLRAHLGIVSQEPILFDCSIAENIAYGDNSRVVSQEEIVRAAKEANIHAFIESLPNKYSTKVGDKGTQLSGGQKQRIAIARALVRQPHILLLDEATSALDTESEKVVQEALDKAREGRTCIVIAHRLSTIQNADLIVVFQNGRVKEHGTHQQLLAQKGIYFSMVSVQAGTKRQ

[3] = phase II trial, dose modifications in ER+/ERBB2-negative cohort (safety population); assay type: in vivo, human
Experimental: (§1) Administration of 5 μg/kg filgrastim was allowed for treatment-limiting neutropenia, and loperamide was used to treat diarrhea but was not allowed prophylactically in cycle 1.
Incidence and grades of AEs for all patients were analyzed using the safety population which included all patients (eligible and ineligible) who received at least 1 dose of study drug. Toxic effects were reported and tabulated by numbers and frequencies for all related AEs. SAS statistical software version 9.4 (SAS Institute) was used for all data analysis. Data were analyzed from March through May 2019.

[4] = phase II trial, adverse events (safety population, CTCAE v4.03); assay type: in vivo, human
Experimental: Safety was assessed throughout the study. Adverse events were graded and reported according to the National Cancer Institute Common Terminology Criteria for Adverse Events (CTCAE version 4.03).

[5] = test system: ER-positive, HER2-negative metastatic or locally recurrent breast cancer; assay: randomized phase II trial, ER+/HER2− cohort, efficacy; assay type: in vivo, human
Source text: (§2) Other information about this phase II clinical trial is included in O'Shaughnessy et al., JAMA Network Open. 2021, 4(4):e214103, the entire contents of which are incorporated herein by reference.
Eligible patients were postmenopausal women aged 18 years or older with metastatic or unresectable locally recurrent breast cancer that was histologically confirmed as ER+/HER2− invasive breast cancer (any progesterone receptor status), with Ki67 greater than 15% in primary or metastatic tissue, or grade 3 TNBC, to enrich for more highly proliferative cancers that may be more dependent on AURKA. HER2− negative was defined as immunohistochemistry (IHC) status of 0, 1+, or 2+(if IHC was 2+, a negative FISH test was required with a ratio <2.0 and an average HER2 copy number <4.0 signals/cell). ER-negative and progesterone receptor (PR)-negative status was defined as ER and PR less than 1% nuclei positive by IHC. […] An Eastern Cooperative Group (ECOG) performance status of 0 or 1 and adequate hematologic, cardiac, renal, and liver function were required. Eligible patients were required to have measurable disease by Response Evaluation Criteria in Solid Tumors (RECIST v 1.1) criteria, or lytic or mixed blastic/lytic bone-only disease. Patients with untreated or progressing brain metastases, or those who required corticosteroids, were not eligible.
as §1
(§3) Computed tomography (CT) of chest, abdomen, and pelvis was performed at screening. Chest and abdominal CT imaging were then performed every 8 weeks after initiation of treatment for the first 32 weeks of treatment and every 12 weeks thereafter for the duration of the treatment period, and at End of Treatment (EoT). Pelvic CT imaging was obtained at subsequent tumor assessments only if pelvic metastases were identified at screening. Bone scans were obtained on all patients at screening and then every 12 weeks in patients with bone metastases on their baseline bone scan.
(§4) Patients were stratified as ER-positive, HER2-negative cohort and TN cohort based on results of ER, progesterone receptor, and HER2 measurements on their metastatic tissue, or, if not available, on their primary breast cancer tissue.
(§5) Patients' baseline demographic and disease characteristics were summarized for the intent-to-treat population, which included all patients registered on study and were described by means with SDs and medians with ranges for continuous variables and by numbers with percentages for categorical variables. PFS was defined as the time from date of registration in the study to the date of first progression of disease or the date of death. Patients whose disease had not progressed were censored at the last contact date. OS was measured from the date of registration to the date of death. PFS and OS were estimated using Kaplan-Meier methods with 95% CIs in the intent-to-treat population and compared by log-rank tests.
(§6) The protocol-defined evaluable population included all eligible patients who received at least 1 dose of study drug. CBR and ORR were examined using univariate and multivariate approaches with Fisher exact tests and the logistic regression models. The 95% CIs were estimated for CBR and ORR assuming binomial distribution. A χ^2 test was used to estimate the differences between CBRs and ORRs in the two arms.

[6] = test system: TN metastatic or locally recurrent breast cancer; assay: randomized phase II trial, TN cohort, efficacy; assay type: in vivo, human
Source text: as §2
Eligible patients were postmenopausal women aged 18 years or older with metastatic or unresectable locally recurrent breast cancer that was histologically confirmed as ER+/HER2− invasive breast cancer (any progesterone receptor status), with Ki67 greater than 15% in primary or metastatic tissue, or grade 3 TNBC, to enrich for more highly proliferative cancers that may be more dependent on AURKA. HER2− negative was defined as immunohistochemistry (IHC) status of 0, 1+, or 2+(if IHC was 2+, a negative FISH test was required with a ratio <2.0 and an average HER2 copy number <4.0 signals/cell). ER-negative and progesterone receptor (PR)-negative status was defined as ER and PR less than 1% nuclei positive by IHC. Patients may have been treated with 0 or 1 chemotherapy regimen for advanced disease and with neo/adjuvant taxane therapy at least 12 months before the development of metastatic disease. An Eastern Cooperative Group (ECOG) performance status of 0 or 1 and adequate hematologic, cardiac, renal, and liver function were required. Eligible patients were required to have measurable disease by Response Evaluation Criteria in Solid Tumors (RECIST v 1.1) criteria, or lytic or mixed blastic/lytic bone-only disease. Patients with untreated or progressing brain metastases, or those who required corticosteroids, were not eligible.
as §1, §3, §4
The TN and ER-positive, HER2-negative cohorts were analyzed independently, and no change to the statistical plan was made based on the underaccrual to the TN group.
as §5, §6

[7] = Arm 1 (paclitaxel plus alisertib), n=66
[8] = treatment-related, ER+/HER2− and TN cohorts
[9] = ER+/HER2− cohort, evaluable patients (P+A n=58, P n=62)
[10] = TN cohort, evaluable patients (P+A n=16, P n=12)

COc1cc(Nc2ncc3c(n2)-c2ccc(Cl)cc2C(c2c(F)cccc2OC)=NC3)ccc1C(=O)O [Alisertib, 4-{[9-chloro-7-(2-fluoro-6-methoxyphenyl)-5H-pyrimido[5,4-d][2]benzazepin-2-yl]amino}-2-methoxybenzoic acid]
effect of combination in breast cancer xenograft models [1]: Synergistic or additive effects | Pgp-mediated efflux of paclitaxel [2]: inhibited Pgp-mediated efflux of paclitaxel | Patients with both dose delay and reduction [3, 7]: (62.1) % | Patients with dose delay alone [3, 7]: (18.2) % | Patients with dose discontinuation [3, 7]: (30.3) % | Patients with dose increased [3, 7]: (1.5) % | Patients with dose reduction alone [3, 7]: (7.6) % | Patients with both dose delay and reduction ([3]; Arm 1 (paclitaxel plus alisertib), n=66, listed as alisertib): 62.1%

CC(=O)O[C@H]1C(=O)[C@@]2(C)[C@H]([C@H](OC(=O)c3ccccc3)[C@]3(O)C[C@H](OC(=O)[C@H](O)[C@@H](NC(=O)c4ccccc4)c4ccccc4)C(C)=C1C3(C)C)[C@]1(OC(C)=O)CO[C@@H]1C[C@@H]2O [Paclitaxel, (2α,4α,5β,7β,10β,13α)-4,10-Bis(acetyloxy)-13-{[(2R,3S)-3-(benzoylamino)-2-hydroxy-3-phenylpropanoyl]oxy}-1,7-dihydroxy-9-oxo-5,20-epoxytax-11-en-2-yl benzoate]
grade 3 or 4 anemia, patients ([4]; all patients combined): 1.2% | grade 3 or 4 diarrhea, patients ([4]; all patients combined): 0% | grade 3 or 4 neutropenia, patients ([4]; all patients combined): 16.4% | grade 3 or 4 stomatitis or oral mucositis, patients ([4]; all patients combined): 0% | grade 3 or 4 neuropathy, patients ([4]; in vivo): 11.40% | patients who received standard-dose (5 μg/kg) filgrastim ([4]; in vivo): 15.70% | Anemia Grade1 [4, 8]: 5 (5.9) n (%) | Anemia Grade2 [4, 8]: 5 (5.9) n (%) | Anemia Grade3 [4, 8]: 1 (1.2) n (%) | Anemia Grade4 [4, 8]: 0 n (%) | Anemia Total [4, 8]: 11 (12.9) n (%) | Diarrhea Grade1 [4, 8]: 9 (10.6) n (%) | Diarrhea Grade2 [4, 8]: 2 (2.4) n (%) | Diarrhea Grade3 [4, 8]: 0 n (%) | Diarrhea Grade4 [4, 8]: 0 n (%) | Diarrhea Total [4, 8]: 11 (12.9) n (%) | Dizziness Grade1 [4, 8]: 2 (2.4) n (%) | Dizziness Grade2 [4, 8]: 0 n (%) | Dizziness Grade3 [4, 8]: 0 n (%) | Dizziness Grade4 [4, 8]: 0 n (%) | Dizziness Total [4, 8]: 2 (2.4) n (%) | Fatigue Grade1 [4, 8]: 26 (30.6) n (%) | Fatigue Grade2 [4, 8]: 6 (7.1) n (%) | Fatigue Grade3 [4, 8]: 2 (2.4) n (%) | Fatigue Grade4 [4, 8]: 0 n (%) | Fatigue Total [4, 8]: 34 (40.0) n (%) | Febrile neutropenia Grade1 [4, 8]: 0 n (%) | Febrile neutropenia Grade2 [4, 8]: 0 n (%) | Febrile neutropenia Grade3 [4, 8]: 0 n (%) | Febrile neutropenia Grade4 [4, 8]: 0 n (%) | Febrile neutropenia Total [4, 8]: 0 n (%) | Headache Grade1 [4, 8]: 4 (4.7) n (%) | Headache Grade2 [4, 8]: 1 (1.2) n (%) | Headache Grade3 [4, 8]: 0 n (%) | Headache Grade4 [4, 8]: 0 n (%) | Headache Total [4, 8]: 5 (5.9) n (%) | Leukopenia Grade1 [4, 8]: 2 (2.4) n (%) | Leukopenia Grade2 [4, 8]: 1 (1.2) n (%) | Leukopenia Grade3 [4, 8]: 2 (2.4) n (%) | Leukopenia Grade4 [4, 8]: 0 n (%) | Leukopenia Total [4, 8]: 5 (5.9) n (%) | Mucositis oral Grade1 [4, 8]: 4 (4.7) n (%) | Mucositis oral Grade2 [4, 8]: 0 n (%) | Mucositis oral Grade3 [4, 8]: 0 n (%) | Mucositis oral Grade4 [4, 8]: 0 n (%) | Mucositis oral Total [4, 8]: 4 (4.7) n (%) | Nausea Grade1 [4, 8]: 19 (22.4) n (%) | Nausea Grade2 [4, 8]: 4 (4.7) n (%) | Nausea Grade3 [4, 8]: 1 (1.2) n (%) | Nausea Grade4 [4, 8]: 0 n (%) | Nausea Total [4, 8]: 24 (28.2) n (%) | Neuropathy Grade1 [4, 8]: 9 (12.9) n (%) | Neuropathy Grade2 [4, 8]: 8 (11.4) n (%) | Neuropathy Grade3 [4, 8]: 8 (11.4) n (%) | Neuropathy Grade4 [4, 8]: 0 n (%) | Neuropathy Total [4, 8]: 25 (35.7) n (%) | Neutropenia Grade1 [4, 8]: 1 (1.2) n (%) | Neutropenia Grade2 [4, 8]: 3 (3.5) n (%) | Neutropenia Grade3 [4, 8]: 11 (12.9) n (%) | Neutropenia Grade4 [4, 8]: 3 (3.5) n (%) | Neutropenia Total [4, 8]: 18 (21.2) n (%) | Stomatitis Grade1 [4, 8]: 7 (8.2) n (%) | Stomatitis Grade2 [4, 8]: 0 n (%) | Stomatitis Grade3 [4, 8]: 0 n (%) | Stomatitis Grade4 [4, 8]: 0 n (%) | Stomatitis Total [4, 8]: 7 (8.2) n (%) | Thrombocytopenia Grade1 [4, 8]: 0 n (%) | Thrombocytopenia Grade2 [4, 8]: 0 n (%) | Thrombocytopenia Grade3 [4, 8]: 0 n (%) | Thrombocytopenia Grade4 [4, 8]: 0 n (%) | Thrombocytopenia Total [4, 8]: 0 n (%) | Patients with both dose delay and reduction [3, 7]: (16.7) % | Patients with dose delay alone [3, 7]: (63.6) % | Patients with dose discontinuation [3, 7]: (16.7) % | Patients with dose increased [3, 7]: (3.0) % | Patients with dose reduction alone [3, 7]: (1.5) % | Patients with dose delay alone ([3]; Arm 1 (paclitaxel plus alisertib), n=66, listed as paclitaxel): 63.6% | Patients with both dose delay and reduction ([3]; Arm 2 (paclitaxel alone), n=70): (31.4) % | Patients with dose delay alone ([3]; Arm 2 (paclitaxel alone), n=70): (14.3) % | Patients with dose discontinuation ([3]; Arm 2 (paclitaxel alone), n=70): (11.4) % | Patients with dose increased ([3]; Arm 2 (paclitaxel alone), n=70): 0% | Patients with dose reduction alone ([3]; Arm 2 (paclitaxel alone), n=70): (2.9) % | Patients with both dose delay and reduction ([3]; Arm 2 (paclitaxel alone), n=70, listed as paclitaxel alone): 31.4% | median (IQR) PFS in patients previously treated with palbociclib ([5]; 30 patients pretreated with palbociclib for MBC (16 P, 14 P+A), listed as paclitaxel alone): 5.6 (3.0-10.6) months and 5.6 months | CBR in patients pretreated with palbociclib ([5]; ER+/HER2− cohort): 37.5% | Best Overall Response: CR [5, 9]: 0% | Best Overall Response: PD [5, 9]: 8 (12.9) % | Best Overall Response: SD [5, 9]: 33 (53.2) % | CBR (CR + PR + SD ≥ 6 months) ([5]; ER+/HER2− cohort, evaluable patients (P+A n=58, P n=62), listed as P): 35 (56.5) % | CBR (CR + PR + SD ≥ 6 months) ([5]; ER+/HER2− cohort, evaluable patients (P+A n=58, P n=62), listed as paclitaxel alone): 56.5% | estimated PFS at 12 months ([5]; ER-positive, HER2-negative MBC): 15.4% | median (IQR) PFS ([5]; ER-positive, HER2-negative MBC, intent-to-treat, listed as paclitaxel alone): 7.1 (3.8-10.6) months and 7.1 months | median (IQR) OS ([5]; median follow-up 22 months): 25.1 (11.0-31.4) months | median (IQR) PFS ([6]; 35 patients with TN MBC, intent-to-treat, listed as paclitaxel alone): 5.7 (2.9-8.2) months and 5.7 months | Best Overall Response: CR [6, 10]: 0% | Best Overall Response: PD [6, 10]: 2 (16.7) % | Best Overall Response: PR [6, 10]: 5 (41.7) % | Best Overall Response: SD [6, 10]: 5 (41.7) % | CBR (CR + PR + SD ≥ 6 months) [6, 10]: 7 (58.3) % | ORR (CR + PR) [6, 10]: 5 (41.7) % | median (IQR) OS ([6]; median follow-up 13.7 months): 12.7 (6.8-23.5) months
